For this experiment, the target named is IRAK4 protein in THP-1 cells (Homo sapiens (Human), UniProt Q9NWZ3). The experiment in a line: Degradation of IRAK4 in THP-1 cells, human IRAK4 AlphaLISA assay. Type of experiment: cell-based. The following applies: 24 h incubation. As for the experimental part:
THP-1 cells (Stem Cell Bank, Chinese Academy of Sciences) were inoculated onto a 24-well cell culture plate at 0.95 mL/well, with a cell density of 5×10^5 cells/well. The cell plate was incubated overnight in a 37° C., 5% carbon dioxide incubator, and 50 μL of a solution of a compound in dimethyl sulfoxide was added, such that the final concentration of the compound fell within the range of 0.03-3000 nM. After another 24 h of incubation, cells were collected into 1.5 mL centrifuge tubes and centrifuged at 1000 rpm at 4° C. for 5 min. The cell pellets were washed twice with 1×DPBS. The resuspended cells were lysed with 200 μL of lysis buffer (Western and IP cell lysis buffer (Beyotime), supplemented with 1 mM phenylmethylsulfonyl fluoride and protease inhibitor cocktail (Beyotime)), left to stand on ice for 30 mini, and then centrifuged at 14,000 g at 4° C. for 10 min. The supernatant samples were assayed by Western Blot for IRAK4 protein levels.
The above cell lysates were also tested for IRAK4 degradation using a human IRAK4 AlphaLISA assay kit (PerkinElmer, AL3117C). The method is specifically as follows: 2-μL test samples of cell lysate supernatant were transferred to a white 384-well plate (PerkinElmer, 6007299), and 4 μL of 5× anti-IRAK4 receptor beads (PerkinElmer, final concentration of 10 μg/mL) was then added. The plate was incubated at 23° C. for 30 min. Then 4 μL of 5× biotin-labeled anti-IRAK4 antibody (PerkinElmer, final concentration of 1 nM) was added, and the plate was incubated at 23° C. for 60 min. Finally, 10 μL of 2′ streptavidin-labeled donor beads (final concentration of 40 μg/mL) was added to each well, and the plate was incubated in the dark at 23° C. for 30 min. After the incubation was complete, AlphaLISA signal values were measured on a microplate reader EnVision (PerkinElmer, 2105) in the AlphaScreen standard mode, and IRAK4 concentrations were calculated from these signal values. Then a non-linear curve fitting of logarithmic concentration-inhibition rate was performed using GraphPad Prism 7, and the DC50 and Dmax values of the compound were obtained.
(Alpha assays give light when donor and acceptor beads are brought close together.)

Sequence of IRAK4 protein in THP-1 cells (Q9NWZ3 whole entry): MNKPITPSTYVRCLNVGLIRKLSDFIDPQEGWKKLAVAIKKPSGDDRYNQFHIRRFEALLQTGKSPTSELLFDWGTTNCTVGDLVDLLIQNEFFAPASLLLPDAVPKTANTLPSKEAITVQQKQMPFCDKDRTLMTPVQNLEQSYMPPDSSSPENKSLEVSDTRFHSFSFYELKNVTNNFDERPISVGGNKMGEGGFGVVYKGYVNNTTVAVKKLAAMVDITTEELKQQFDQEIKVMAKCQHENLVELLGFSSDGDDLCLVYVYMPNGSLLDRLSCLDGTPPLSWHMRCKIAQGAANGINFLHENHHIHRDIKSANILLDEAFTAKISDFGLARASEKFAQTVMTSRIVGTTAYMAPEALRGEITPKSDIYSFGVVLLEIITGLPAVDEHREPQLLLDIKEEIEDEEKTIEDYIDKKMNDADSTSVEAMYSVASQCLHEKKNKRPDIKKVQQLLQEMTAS

`Cc1nn([C@H]2CC[C@H](CN3CCC4(CC3)CCN(C(=O)c3ccc(Cl)c(N5CCC(=O)NC5=O)c3)CC4)CC2)cc1NC(=O)c1cnn2ccc(N3C[C@H]4C[C@@H]3CO4)nc12` [Example 7, 5-((1R,4R)-2-oxa-5-azabicyclo[2.2.1]heptan-5-yl)-N-(1-((1R,4R)-4-((9-(4-chloro-3-(2,4-dioxotetrahydropyrimidin-1(2H)-yl)benzoyl)-3,9-diazaspiro[5.5]undecan-3-yl)methyl)cyclohexyl)-3-methyl-1H-pyrazol-4-yl)pyrazolo[1,5-a]pyrimidine-3-carboxamide] had a DC50 of 148 nM and a Dmax of 76.4%.
In turn, `COc1cc2nn([C@H]3CC[C@](O)(COCC4CCN(C(=O)c5ccc(Cl)c(N6CCC(=O)NC6=O)c5)CC4)CC3)cc2cc1NC(=O)c1cccc(C(F)(F)F)n1` [Example 8, N-(2-((1S,4S)-4-(((1-(4-chloro-3-(2,4-dioxotetrahydropyrimidin-1(2H)-yl)benzoyl)piperidin-4-yl)methoxy)methyl)-4-hydroxycyclohexyl)-6-methoxy-2H-indol-5-yl)-6-(trifluoromethyl)pyridinecarboxamide] returned a DC50 of 8.8 nM and a maximal degradation (Dmax) of 86.8%.
For `COc1cc2nn([C@H]3CC[C@](O)(COCCC4CCN(C(=O)c5ccc(Cl)c(N6CCC(=O)NC6=O)c5)CC4)CC3)cc2cc1NC(=O)c1cccc(C(F)(F)F)n1` [Example 10], the DC50 amounted to 2.8 nM and the maximal degradation (Dmax) was found to be 99.3%.
In the case of `CN(CCC1CCN(C(=O)c2ccc(Cl)c(N3CCC(=O)NC3=O)c2)CC1)C[C@H]1CC[C@H](n2cc(NC(=O)c3cnn4ccc(N5C[C@H]6C[C@@H]5CO6)nc34)c(C(F)F)n2)CC1` [Example 11, 5-((1R,4R)-2-oxa-5-azabicyclo[2.2.1]heptan-5-yl)-N-(1-((1R,4R)-4-(((2-(1-(4-chloro-3-(2,4-dioxotetrahydropyrimidin-1(2H)-yl)benzoyl)piperidin-4-yl)ethyl)(methyl)amino)methyl)cyclohexyl)-3-(difluoromethyl)-1H-pyrazol-4-yl)pyrazolo[1,5-a]pyrinidine-3-carboxamide], half-maximal degradation (DC50) was put at 12.7 nM and the Dmax amounted to 90.7%.
The matching figures for `COc1cc2nn([C@H]3CC[C@](O)(CN(C)CC4CCC5(CC4)CCN(C(=O)c4ccc(Cl)c(N6CCC(=O)NC6=O)c4)CC5)CC3)cc2cc1NC(=O)c1cccc(C(F)(F)F)n1` [Example 17]: 10.4 nM and 99.4%.
The molecule `COc1cc2nn([C@H]3CC[C@@](COCCC4CCN(C(=O)c5ccc(Cl)c(N6CCC(=O)NC6=O)c5)CC4)(OC)CC3)cc2cc1NC(=O)c1cccc(C(F)(F)F)n1` [Example 22, N-(2-((1S,4S)-4-((2-(1-(4-chloro-3-(2,4-dioxotetrahydropyrimidin-1(2H)-yl)benzoyl)piperidin-4-yl)ethoxy)methyl)-4-methoxycyclohexyl)-6-methoxy-2H-indazol-5-yl)-6-(trifluoromethyl)pyridinecarboxamide] returned a DC50 of 3.42 nM and a maximal degradation (Dmax) of 96.5%.
The molecule `O=C1CCN(c2cc(C(=O)N3CCC4(CCN(C[C@H]5CC[C@H](n6cc(NC(=O)c7cnn8ccc(N9CCOCC9)nc78)c(C(F)F)n6)CC5)CC4)CC3)ccc2Cl)C(=O)N1` [Example 29, N-(1-((1R,4R)-4-((9-(4-chloro-3-(2,4-dioxotetrahydropyrimidin-1(2H)-yl)benzoyl)-3,9-diazaspiro[5.5]undecan-3-yl)methyl)cyclohexyl)-3-(difluoromethyl)-1H-pyrazol-4-yl)-5-morpholinopyrazolo[1,5-a]pyrimidine-3-carboxamide] had a 50% degradation concentration (DC50) of 2.75 nM and a maximal degradation (Dmax) of 98.5%.
The matching figures for `CN(CCC1CCN(C(=O)c2ccc(Cl)c(N3CCC(=O)NC3=O)c2)CC1)C[C@H]1CC[C@H](n2cc(NC(=O)c3cnn4ccc(N5CCOCC5)nc34)c(C(F)F)n2)CC1` [Example 30, N-(1-((1R,4R)-4-(((2-(1-(4-chloro-3-(2,4-dioxotetrahydropyrimidin-1(2H)-yl)benzoyl)piperidin-4-yl)ethyl)(methyl)amino)methyl)cyclohexyl)-3-(difluoromethyl)-1H-pyrazol-4-yl)-5-morpholinopyrazolo[1,5-a]pyrimidine-3-carboxamide]: 5.23 nM and 90.1%.
The corresponding values for `CN(CCC1CCN(C(=O)c2ccc(Cl)c(N3CCC(=O)NC3=O)c2)CC1)C[C@H]1CC[C@H](n2cc(NC(=O)c3cnn4ccc(N5CC6CCC(C5)O6)nc34)c(C(F)F)n2)CC1` [Example 31, 5-(8-oxa-3-azabicyclo[3.2.1]octan-3-yl)-N-(1-((1R,4R)-4-(((2-(1-(4-chloro-3-(2,4-dioxotetrahydropyrimidin-1(2H)-yl)benzoyl)piperidin-4-yl)ethyl)(methyl)amino)methyl)cyclohexyl)-3-(difluoromethyl)-1H-pyrazol-4-yl)pyrazolo[1,5-a]pyrimidine-3-carboxamide] are 6.1 nM and 91.1%.
The corresponding values for `O=C1CCN(c2cc(C(=O)N3CCC4(CCN(C[C@H]5CC[C@H](n6cc(NC(=O)c7cnn8ccc(N9CC%10CCC(C9)O%10)nc78)c(C(F)F)n6)CC5)CC4)CC3)ccc2Cl)C(=O)N1` [Example 32, 5-(8-oxa-3-azabicyclo[3.2.1]octan-3-yl)-N-(1-((1R,4R)-4-((9-(4-chloro-3-(2,4-dioxotetrahydropyrimidin-1(2H)-yl)benzoyl)-3,9-diazaspiro[5.5]undecan-3-yl)methyl)cyclohexyl)-3-(difluoromethyl)-1H-pyrazol-4-yl)pyrazolo[1,5-a]pyrimidine-3-carboxamide] are 3.46 nM and 90.5%.
`COc1ccc(C(=O)N2CCC(CCN(C)C[C@H]3CC[C@H](n4cc(NC(=O)c5cnn6ccc(N7CCC[C@H](O)C7)nc56)c(C(F)F)n4)CC3)CC2)cc1N1CCC(=O)NC1=O` [Example 35, N-(3-(difluoromethyl)-1-((1R,4S)-4-(((2-(1-(3-(2,4-dioxotetrahydropyrimidin-1(2H)-yl)-4-methoxybenzoyl)piperidin-4-yl)ethyl)(methyl)amino)methyl)cyclohexyl)-1H-pyrazol-4-yl)-5-((S)-3-hydroxypiperidin-1-yl)pyrazolo[1,5-a]pyrimidine-3-carboxamide]: the DC50 came to 0.78 nM and the greatest degradation seen (Dmax) worked out at 100%.
`COc1ccc(C(=O)N2CCC(CCN(C)C[C@H]3CC[C@H](n4cc(NC(=O)c5cnn6ccc(N7CCC[C@H](N)C7)nc56)c(C(F)F)n4)CC3)CC2)cc1N1CCC(=O)NC1=O` [Example 36, 5-((S)-3-aminopiperidin-1-yl)-N-(3-(difluoromethyl)-1-((1R,4S)-4-(((2-(1-(3-(2,4-dioxotetrahydropyrimidin-1(2H)-yl)-4-methoxybenzoyl)piperidin-4-yl)ethyl)(methyl)amino)methyl)cyclohexyl)-1H-pyrazol-4-yl)pyrazolo[1,5-a]pyrimidine-3-carboxamide] returned a DC50 of 3.45 nM and a Dmax of 96%.
`COc1ccc(C(=O)N2CCC(CCN(C)C[C@H]3CC[C@H](n4cc(NC(=O)c5cnn6ccc(N7CC8(COC8)C7)nc56)c(C(F)F)n4)CC3)CC2)cc1N1CCC(=O)NC1=O` [Example 39, N-(3-(difluoromethyl)-1-((1R,4R)-4-(((2-(1-(3-(2,4-dioxotetrahydropyrimidin-1(2H)-yl)-4-methoxybenzoyl)piperidin-4-yl)ethyl)(methyl)amino)methyl)cyclohexyl)-1H-pyrazol-4-yl)-5-(2-oxa-6-azaspiro[3.3]heptan-6-yl)pyrazolo[1,5-a]pyrimidine-3-carboxamide] displayed a DC50 of 10.9 nM and a Dmax of 93.9%.

A word on the DC50: it is the concentration at which degradation of the target reaches its halfway point. The low end stands for degradation at low concentration, the high end for degradation only at high concentration. Usually Dmax stands for the largest share of the target that was removed. Low readings indicate a partial loss of target, high ones a fuller loss of target.

Source of the values: patent US20240368194A1, “IRAK4 DEGRADATION AGENT, AND PREPARATION METHOD THEREFOR AND USE THEREOF” (SHANGHAI LEADINGTAC PHARMACEUTICAL CO. LTD., priority 2021, published 2024).
